Assay results from a melting point compilation (Tetko et al.; mined from patent text by program, amines drawn as free bases though some values may be those of a salt).

First: CCOC(=O)CN1CCN(C2=Nc3ccccc3Cc3ccccc32)CC1
Second: COc1ccccc1-c1cccc2c1OC(CN)CN2C (stereo unspecified)
The melting point of the first is higher: 107 to 108 °C for the first, 90 °C for the second.

First: CCCN1CCC(Cc2ccc3c(c2)c(Cc2ccc(C(=O)O)cc2OC)cn3C)C1=O (stereo unspecified)
Second: CCCC(=O)NS(=O)(=O)c1ccc(C(=O)C=Cc2cc(-c3cc4ccccc4[nH]3)c(OC)cc2OC)cc1
The melting point of the first is higher: 202 to 212 °C for the first, 155 to 165 °C for the second.

Compared with NC(=O)N(O)Cc1ccc(OCc2coc(-c3ccc(C(F)(F)F)cc3)n2)cc1, CCOC(=O)c1ccc(-c2ccc(-c3ccc(C(F)(F)F)cc3)s2)cc1 is higher in melting point: 128 to 130 °C for the first, 203 to 204 °C for the second.

First: CC(C)(C)c1nc2cc(N3CCOCC3)c(N=C=S)cc2s1
Second: Cc1ccc2[nH]c3c(cc(-c4cccc(C(=O)N5CCOCC5)c4)c(=O)n3C)c2c1
The melting point of the first is lower: 141 to 143 °C for the first, 296 to 298 °C for the second.

First: C=CCOc1ccc(CCC(=O)O)cc1
Second: C=CCOc1ccc(-c2cc(=O)c3c(O)cc(OCOC)cc3o2)cc1
The melting point of the first is lower: 88 to 89 °C for the first, 100 to 101 °C for the second.

Compared with COc1ccc(C(=O)Nc2ccccc2C(O)C2CCCCN2)cc1 (stereo unspecified), COc1ccc(C(=O)c2ccc3cc(OC)ccc3c2)c(F)c1 is lower in melting point: 158 to 160 °C for the first, 120 to 122 °C for the second.

First: COc1cc(C(C)=O)ccc1OCCN1C2CCC1CC(c1n[nH]c3ccccc13)C2 (stereo unspecified)
Second: CC(=O)c1cccc(Nc2c3ccccc3nc3occc23)c1
The melting point of the first is lower: 154 to 155 °C for the first, 158 to 159 °C for the second.

First: C=CCOc1ccc(Br)cc1C(C)=NO
Second: C/C(=C\COc1ccc(Cl)cc1Cl)C(=O)O
The melting point of the first is lower: 110 to 111 °C for the first, 117 to 122 °C for the second.

First: CCOC(=O)c1c[nH]c(Br)c1-c1cccc(F)c1
Second: CCOC(=O)C1=C(N)NC(C)=C(C(=O)OC)C1c1ccccc1C#N (stereo unspecified)
The melting point of the first is lower: 114 to 117 °C for the first, 224 °C for the second.

Compared with c1ccc2nc(COc3ccc(Cc4nnn[nH]4)cc3)ccc2c1, CCN(CC)CCOc1ccc(Nc2ncc3c(n2)N(C)C(=O)N(Cc2ccc(OC)cc2)C3)cc1 is lower in melting point: 173 to 175 °C for the first, 112 °C for the second.

First: O=C(O)c1ccc(CCCC2SCC(=O)N2CCCC2(O)CCCCC2)cc1 (stereo unspecified)
Second: Cc1c(NC(=O)c2ccc(-c3ccc(F)cc3)cc2)ccc2cc(CN3CCC(CC(=O)N4CCCCC4)CC3)cnc12
The melting point of the first is lower: 118 to 121 °C for the first, 189 to 190 °C for the second.

First: O=C1CCC2=C1C(c1ccc(Cl)c(Cl)c1)C1=C(CCS1)N2 (stereo unspecified)
Second: Cc1cc(CNc2cccc3c2CN(C2CCC(=O)NC2=O)C3=O)oc1C (stereo unspecified)
The melting point of the first is higher: > 260 °C for the first, 237 to 239 °C for the second.

Compared with O=C(O)C(CC1CCCC1)c1ccc(Cl)c([N+](=O)[O-])c1 (stereo unspecified), O=C1CCC(C(=O)O)c2cc(Cl)c(C3CCCCC3)cc21 (stereo unspecified) is higher in melting point: 112 to 115 °C for the first, 204 to 205 °C for the second.

First: CCc1c(C)c2ccc(O)cc2oc1=O
Second: CCNn1cc(C(=O)O)c(=O)c2ccc(C)nc21
The melting point of the first is higher: 201 to 203 °C for the first, 166 to 169 °C for the second.

First: O=S1(=O)NCN(C2CC2)c2ccc(F)c(Cl)c21
Second: O=C1OCCN1c1ccc([N+](=O)[O-])cc1Cl
The melting point of the first is higher: 198 to 200 °C for the first, 94 to 96 °C for the second.

First: NC(=O)CCCC1Cc2ccccc2C1
Second: CCCCCCCCCCNC(=O)c1ccccc1N
The melting point of the first is higher: 116 to 118 °C for the first, 72 to 74 °C for the second.

First: NC(=NCC(F)(F)F)Nc1ccnc(CCCCNC(=S)NCC(F)(F)F)n1
Second: Cc1cc(C(F)(F)C(F)(F)F)nc(N(C(N)=O)c2ccccc2[N+](=O)[O-])n1
The melting point of the first is lower: 142 to 145 °C for the first, 156 °C for the second.

First: CC(=O)N(O)C(C)/C=C/c1cccc(Oc2ccc(Cl)cc2)c1 (stereo unspecified)
Second: O=C(O)c1cc(-c2ccc(Cl)cc2)nc(-c2ccc(Oc3ccc(F)cc3)cc2)c1
The melting point of the first is lower: 86 to 87 °C for the first, 201 to 202 °C for the second.

First: CN1CCCC(O)(c2cccc3c2ccn3C)C1 (stereo unspecified)
Second: C[C@H]1C[C@@](O)(c2cccc(Sc3ccc4c(c3)CC(=O)N4C)c2)CCO1
The melting point of the first is lower: 90 °C for the first, 110 to 111 °C for the second.

First: CCC(=NOCc1ccc(Cl)cc1)c1cc(Cl)ccc1NS(=O)(=O)C(F)(F)F
Second: O=c1c(Cc2ccccc2)coc2cc(OS(=O)(=O)C(F)(F)F)ccc12
The melting point of the first is lower: 54 to 55 °C for the first, 56 to 58 °C for the second.

Compared with COC(=O)[C@@H]1CCCN1S(=O)(=O)c1ccc(C)c(COc2cccc3c(C)cc(C)nc23)c1C, COc1ccc2cc(-c3ccnc(NCCc4ccc(OC)c(OC)c4)n3)cc(N3CCNCC3)c2c1 is higher in melting point: 50 °C for the first, 138 to 140 °C for the second.

First: CCOC(=O)c1sc(S(C)(=O)=O)c2c1CCc1c(Br)nn(C)c1-2
Second: CCOC(=O)CS(=O)(=O)C=C1SC=CS1
The melting point of the first is higher: 195 to 196 °C for the first, 134 to 136 °C for the second.

Compared with CCC(O)(c1ccc(OCCN(C)C)cc1)c1cccc(C(F)(F)F)c1 (stereo unspecified), O=C(/C=C/c1ccc(OC(F)(F)F)cc1)/C=C/c1ccc(C(F)(F)F)cc1 is higher in melting point: 69 to 70 °C for the first, 97 to 99 °C for the second.

First: NC(=O)CN1C(=O)[C@@H](NC(=O)c2ccccc2)[C@H](c2ccccc2)Sc2ccccc21 (relative stereo)
Second: CC(C)[C@H](NC(=O)OCc1ccccc1)C(=O)N[C@@H](Cc1ccccc1)C(=O)CSCc1ccco1
The melting point of the first is higher: 246 to 248 °C for the first, 122 to 125 °C for the second.

First: O=C(N[C@H]1CCc2c(F)cc(F)cc2C1)C(F)(F)F
Second: COc1ccc2nc(-c3ccccc3)cc(CCNC(=O)C(F)(F)F)c2c1
The melting point of the first is higher: 160 to 161 °C for the first, 122 to 124 °C for the second.

First: N#Cc1ccc2cc(S)ccc2c1
Second: Cc1ccc(-c2ccc3cc4c(cc3c2)C(C)(C)CCC4(C)C)cc1
The melting point of the first is higher: 113 to 115 °C for the first, 91 to 92 °C for the second.

First: C=C=CC(=O)Nc1ccc2ncnc(Nc3cccc(Br)c3)c2c1
Second: Cc1nc2c(N)nc3ccccc3c2n1CCCCNC(=O)Nc1ccccc1
The melting point of the first is higher: 268 to 270 °C for the first, 172 °C for the second.

First: CC(C)(C)OC(=O)N1CC(=O)Nc2ccccc21
Second: Cc1cccc(NC(=O)NCC(=O)N2[C@@H](C(=O)OC(C)(C)C)C[C@H](C(=O)O)[C@H]2c2ccccc2)c1 (racemic)
The melting point of the first is lower: 143 to 144 °C for the first, 160 °C for the second.

First: CN1C(=O)COC(c2cccc(Cl)c2)c2cc(C(O)(c3ccc(Cl)cc3)c3cncn3C)ccc21 (stereo unspecified)
Second: CCN(CC)CCOc1c(-c2ccc(S(C)(=O)=O)cc2)cnn(-c2cccc(Cl)c2)c1=O
The melting point of the first is higher: 160 °C for the first, 110 to 113 °C for the second.

First: CC(=O)c1cccc2c1NCC2
Second: COc1c(C(C)=O)cnc2c(N)cccc12
The melting point of the first is higher: 83 to 85 °C for the first, 76 to 77 °C for the second.

First: Cc1csc(-c2ccc3c(c2)C=C(C(=O)Nc2ccc(CN(C)C4CCOCC4)cc2)CCO3)c1
Second: COc1ccccc1C(=O)Nc1ccc(Cl)c(C(=O)OC(C)C)c1
The melting point of the first is higher: 147 to 148 °C for the first, 94 to 96 °C for the second.

First: OC1CSC(Oc2cc(-c3ccccn3)ccc2Cl)C(O)C1O (stereo unspecified)
Second: O=C(Nc1c[nH]nc1C(=O)NCc1ccco1)c1ccccn1
The melting point of the first is lower: 108 °C for the first, 198 to 199 °C for the second.

First: CC1(C)C(=O)Oc2ccc3ccc(Cn4ccnc4)cc3c21
Second: CCc1cc(Nc2ccc(N)cc2)n2nccc2n1
The melting point of the first is lower: 135 to 136 °C for the first, 153 to 154 °C for the second.

Compared with CN(CCCSCCCC(F)(F)C(F)(F)F)CCOc1ccc(C2=C(c3ccccc3)CCCc3cc(O)ccc32)cc1, COc1ccc(-c2ccc3c(n2)CCC(C)(C)C3=O)cc1 is higher in melting point: 40 to 42 °C for the first, 158 to 159 °C for the second.

First: CC(c1oc2ccccc2c(=O)c1-c1cccc(F)c1)n1cnc2c(N)ncnc21 (stereo unspecified)
Second: O=c1[nH][nH]c(=O)c2c(O)c(-c3ccccc3)ncc12
The melting point of the first is lower: 155 to 158 °C for the first, > 300 °C for the second.

First: CN(C)S(=O)(=O)n1c(C(=S)NCO)nc2cc(Cl)c(Cl)cc21
Second: CNCc1csc(-c2cccc(C3=Nc4cc(N(C)C)c(Cl)cc4NC(=O)C3)c2)n1
The melting point of the first is higher: 140 to 142 °C for the first, 129 to 130 °C for the second.

Compared with O=C(NCCCCCCCNC(=O)c1ccc2c(c1)OCO2)c1ccc2c(c1)OCO2, CCCCc1nc(-c2ccc(C(=O)NCCC(C)(C)C)cc2)no1 is lower in melting point: 151 to 152 °C for the first, 78 to 80 °C for the second.

CC(C)[C@H](NC(=O)Oc1ccccc1)C(=O)O and CCOC(=O)C(CNC(=O)c1ccccc1)C(=O)C(F)(F)F (stereo unspecified) cannot be ordered by melting point: 84.5 to 85.5 °C for the first, 85 to 88 °C for the second.

First: CC(=O)OC1CC2=CCC3C4CCC(C(C)CS(=O)(=O)c5ccccc5)C4(C)CCC3C2(C)C(OC(C)=O)C1 (stereo unspecified)
Second: COC(=C1C2CC3CC1CC(O)(C3)C2)c1cccc(O)c1
The melting point of the first is lower: 104 °C for the first, 171 to 172 °C for the second.

First: C=CCn1c(C)nc2c3c(c(C(=O)OC)cc21)CCC1(Cc2ccccc2C1)N3
Second: CCNc1nc2n(n1)Cc1ccccc1-2
The melting point of the first is lower: 142 °C for the first, 150 to 152 °C for the second.

First: COc1ccc(C(=C/C=C/C(=O)NCCCc2ccncc2)c2ccc(OC)cc2)cc1
Second: O=S(=O)(NCCc1ccncc1)c1ccc(Br)s1
The melting point of the first is lower: 90 to 92 °C for the first, 133 to 134 °C for the second.

Compared with Cc1ccc(S(=O)(=O)NC(=O)C(C)(N)C(C)C)cc1 (stereo unspecified), CC(=O)c1cccc2c1Oc1c(C(C)=O)cccc1N2[Si](C)(C)C(C)(C)C is lower in melting point: 262 to 265 °C for the first, 146 °C for the second.

First: CC(C)OC(=Cn1ccnc1)c1ccc(Cl)cc1Cl
Second: CC(C)=NOCC(C)OC(=O)COc1ccc(Cl)c2cccnc12 (stereo unspecified)
The melting point of the first is higher: 184 to 186 °C for the first, 102 °C for the second.

Compared with CCCc1nn(C)c2c(=O)[nH]c(-c3ccccc3OCC)nc12, CCCc1nc2c(N)nc3ccccc3c2n1OC is higher in melting point: 143 to 146 °C for the first, 210 to 211 °C for the second.

First: O=[N+]([O-])c1ccc(Oc2ccc(C(F)(F)F)cn2)cc1NCP(=O)(O)O
Second: COc1ccc(C(=O)c2cccnc2)cc1[N+](=O)[O-]
The melting point of the first is higher: 94 °C for the first, 86 to 88 °C for the second.

First: C#Cc1ccc(S(N)(=O)=O)s1
Second: Cc1ccccc1C(=O)CC(C#N)C#N
The melting point of the first is higher: 114 to 116 °C for the first, 92 to 93 °C for the second.

Compared with FC(F)(F)c1ccc(-c2ccc3nncn3n2)cc1, CCCCc1nc(C(C)(C)O)c(C(N)=O)n1Cc1ccc(-c2ccccc2C(=O)O)cc1 is lower in melting point: 160 to 161 °C for the first, 130 to 138 °C for the second.

First: Oc1ccc2c(c1)C1CNCC(C2)C1 (stereo unspecified)
Second: O=C(O)C1=Cc2cc(O)ccc2S(=O)(=O)CC1
The melting point of the first is lower: 215 to 217 °C for the first, 260 to 265 °C for the second.

First: Brc1cc(C#Cc2ccccc2)c(Br)cc1C#Cc1ccccc1
Second: COCCCOc1cc(N(C)S(=O)(=O)c2ccccn2)c2[nH]c(C3=NCC(CN4CCS(=O)CC4)S3)cc2c1 (stereo unspecified)
The melting point of the first is lower: 155 to 158 °C for the first, 176 to 177 °C for the second.

First: CO[C@@H]1CN(c2ccc3c(=O)c(C(=O)O)cn(-c4nccs4)c3n2)C[C@H]1NCC(=O)OC(C)(C)C (relative stereo)
Second: CC(C(=O)N(C)CCO)c1cc(C(C)(C)C)c(O)c(C(C)(C)C)c1 (stereo unspecified)
The melting point of the first is higher: 185 to 188 °C for the first, 66 °C for the second.

O=C1c2cc([N+](=O)[O-])ccc2OCN1CCO[N+](=O)[O-] gave a melting point of 97 to 99 °C.
